Reference: PubChem BioAssay (NCI)
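All cell lines were grown in 96-well plates and treated with compound for 48 hours. TGI: concentration producing complete growth inhibition.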

System: P388 leukemia
Assay: NCI tumour cell line growth inhibition, 48 h

## Nc1nc(F)nc2c1ncn2C1OC(COP(=O)(O)O)C(O)C1O (stereo unspecified)
  TGI: 150 µM
